Key:
[1] = Immunosuppressive activity against ConA induced T-cells proliferation; assay type: functional, cell-based; conditions: T-cell
[2] = Immunosuppressive activity against LPS induced B-cells proliferation; assay type: functional, cell-based; conditions: B-cell

## CC1=C[C@H](O)[C@@H]2[C@@]3(C)CC[C@H](O)C(C)(C)[C@@H]3CC[C@@]2(C)[C@]12Cc1c(c(C)c(C)oc1=O)O2
[1]
  IC50: 4.1 µM
[2]
  IC50: 4.6 µM

## CC1=C[C@H](O)[C@@H]2[C@@]3(C)C=CC(=O)C(C)(C)[C@@H]3CC[C@@]2(C)[C@]12Cc1c(c(C)c(C)oc1=O)O2
[1]
  IC50: 4.7 µM
[2]
  IC50: 7.5 µM

## CC1=C[C@H](O)[C@@H]2[C@@]3(C)[C@H](O)CC(=O)C(C)(C)[C@@H]3CC[C@@]2(C)[C@]12Cc1c(c(C)c(C)oc1=O)O2
[1]
  IC50: 12 µM
[2]
  IC50: 13 µM

## CC1=C[C@H](O)[C@@H]2[C@@]3(C)[C@H](O)[C@@H](O)[C@H](O)C(C)(C)[C@@H]3CC[C@@]2(C)[C@]12Cc1c(c(C)c(C)oc1=O)O2
[1]
  IC50: 7.3 µM
[2]
  IC50: 6.3 µM

## CC1=CC[C@@H]2[C@@]3(C)C=CC(=O)C(C)(C)[C@@H]3CC[C@@]2(C)[C@]12Cc1c(c(C)c(C)oc1=O)O2
[1]
  IC50: 4.8 µM
[2]
  IC50: 6.7 µM

## CC1=CC[C@@H]2[C@@]3(C)CCC(=O)C(C)(C)[C@@H]3CC[C@@]2(C)[C@]12Cc1c(c(C)c(C)oc1=O)O2
[1]
  IC50: 17 µM
[2]
  IC50: 17 µM

## CC1=C[C@H](O)[C@@H]2[C@@]3(C)CCC(=O)C(C)(C)[C@@H]3CC[C@@]2(C)[C@]12Cc1c(c(C)c(C)oc1=O)O2
[1]
  IC50: 11 µM
[2]
  IC50: 18 µM

From ChEMBL document CHEMBL6127105, “Immunosuppressive Breviane Spiroditerpenoids from Penicillium bialowiezense Isolated from a Medicinal Plant” (J Nat Prod, 2024)
